What was measured:
Format in all cases: functional
[1] = tested on: HCT-15; experiment: Cytotoxicity against human HCT15 cells assessed as cellular growth at 0.01 uM after 48 hrs by SRB assay relative to control
[2] = Cytotoxicity against human EKVX cells after 48 hrs by SRB assay
[3] = tested on: SNB-19; experiment: Cytotoxicity against human SNB19 cells after 48 hrs by SRB assay; details: SNB-19, 48 h
[4] = tested on: NCI-H226; experiment: Cytotoxicity against human NCI-H226 cells assessed as cellular growth at 1 uM after 48 hrs by SRB assay relative to control
[5] = tested on: COLO 205; experiment: Cytotoxicity against human COLO205 cells after 48 hrs by SRB assay; details: COLO 205, 48 h
[6] = tested on: OVCAR-8; experiment: Cytotoxicity against human OVCAR8 cells assessed as cellular growth at 100 uM after 48 hrs by SRB assay relative to control
[7] = Cytotoxicity against human EKVX cells assessed as cellular growth at 10 uM after 48 hrs by SRB assay relative to control
[8] = tested on: 786-0; experiment: Cytotoxicity against human 786-0 cells assessed as cellular growth at 0.1 uM after 48 hrs by SRB assay relative to control
[9] = tested on: UACC-62; experiment: Cytotoxicity against human UACC62 cells after 48 hrs by SRB assay; details: UACC-62, 48 h
[10] = tested on: NCI-H522; experiment: Cytotoxicity against human NCI-H522 cells assessed as cellular growth at 1 uM after 48 hrs by SRB assay relative to control
[11] = tested on: OVCAR-3; experiment: Cytotoxicity against human OVCAR3 cells assessed as cellular growth at 0.01 uM after 48 hrs by SRB assay relative to control
[12] = tested on: UACC-257; experiment: Cytotoxicity against human UACC257 cells assessed as cellular growth at 100 uM after 48 hrs by SRB assay relative to control
[13] = tested on: MCF7; experiment: Cytotoxicity against human MCF7 cells assessed as cellular growth at 0.1 uM after 48 hrs by SRB assay relative to control
[14] = tested on: HCT-116; experiment: Cytotoxicity against human HCT116 cells after 48 hrs by SRB assay; details: HCT-116, 48 h
[15] = tested on: OVCAR-3; experiment: Cytotoxicity against human OVCAR3 cells after 48 hrs by SRB assay; details: OVCAR-3, 48 h
[16] = tested on: CCRF-CEM; experiment: Cytotoxicity against human CCRF-CEM cells assessed as cellular growth at 0.01 uM after 48 hrs by SRB assay relative to control
[17] = tested on: K562; experiment: Cytotoxicity against human K562 cells assessed as cellular growth at 1 uM after 48 hrs by SRB assay relative to control
[18] = tested on: SNB-75; experiment: Cytotoxicity against human SNB75 cells assessed as cellular growth at 1 uM after 48 hrs by SRB assay relative to control
[19] = tested on: HCT-116; experiment: Cytotoxicity against human HCT116 cells assessed as cellular growth at 0.1 uM after 48 hrs by SRB assay relative to control
[20] = tested on: HOP-92; experiment: Cytotoxicity against human HOP92 cells assessed as cellular growth at 1 uM after 48 hrs by SRB assay relative to control
[21] = tested on: Malme-3M; experiment: Cytotoxicity against human MALME-3M cells assessed as cellular growth at 0.1 uM after 48 hrs by SRB assay relative to control
[22] = tested on: T47D; experiment: Cytotoxicity against human T47D cells assessed as cellular growth at 0.01 uM after 48 hrs by SRB assay relative to control
[23] = tested on: MDA-MB-468; experiment: Cytotoxicity against human MDA-MB-468 cells after 48 hrs by SRB assay; details: MDA-MB-468, 48 h
[24] = tested on: NCI-H522; experiment: Cytotoxicity against human NCI-H522 cells after 48 hrs by SRB assay; details: NCI-H522, 48 h
[25] = tested on: OVCAR-8; experiment: Cytotoxicity against human OVCAR8 cells after 48 hrs by SRB assay; details: OVCAR-8, 48 h
[26] = tested on: U-251; experiment: Cytotoxicity against human U251 cells after 48 hrs by SRB assay; details: U-251, 48 h
[27] = tested on: MCF7; experiment: Cytotoxicity against human MCF7 cells assessed as cellular growth at 1 uM after 48 hrs by SRB assay relative to control
[28] = tested on: HCT-15; experiment: Cytotoxicity against human HCT15 cells assessed as cellular growth at 1 uM after 48 hrs by SRB assay relative to control
[29] = tested on: UACC-257; experiment: Cytotoxicity against human UACC257 cells assessed as cellular growth at 0.01 uM after 48 hrs by SRB assay relative to control
[30] = tested on: HOP-62; experiment: Cytotoxicity against human HOP62 cells assessed as cellular growth at 10 uM after 48 hrs by SRB assay relative to control
[31] = tested on: BT-549; experiment: Cytotoxicity against human BT549 cells assessed as cellular growth at 100 uM after 48 hrs by SRB assay relative to control
[32] = tested on: RXF 393; experiment: Cytotoxicity against human RXF393 cells assessed as cellular growth at 100 uM after 48 hrs by SRB assay relative to control
[33] = tested on: HOP-62; experiment: Cytotoxicity against human HOP62 cells assessed as cellular growth at 0.01 uM after 48 hrs by SRB assay relative to control
[34] = read-out: LC50 (the source's name)
[35] = read-out: pLC50 (the source's name) (converted)

**Q.** Which results are given for `O=C(CCCn1c2c(sc3ccccc32)c(=O)n2nnc(-c3ccccc3)c12)NCCc1c[nH]cn1`?
**A.** Activity [1]: 96%; GI50 ([2]; read-out: GI50): 2.5 µM; CC50 [2, 34]: > 100 µM; TGI ([2]; read-out: TGI): 15.8 µM; GI50 ([2]; read-out: pGI50 (converted)): 2.51 µM; CC50 [2, 35]: > 100 µM; TGI ([2]; read-out: pTGI (converted)): 15.8 µM; GI50 ([3]; read-out: GI50): 5.12 µM; CC50 [3, 34]: 54.3 µM; TGI ([3]; read-out: TGI): 22.1 µM; GI50 ([3]; read-out: pGI50 (converted)): 5.13 µM; CC50 [3, 35]: 53.7 µM; TGI ([3]; read-out: pTGI (converted)): 21.9 µM; Activity [4]: 101%; GI50 ([5]; read-out: GI50): 0.332 µM; CC50 [5, 34]: 5.9 µM; TGI ([5]; read-out: TGI): 2.23 µM; GI50 ([5]; read-out: pGI50 (converted)): 0.331 µM; CC50 [5, 35]: 5.89 µM; TGI ([5]; read-out: pTGI (converted)): 2.24 µM; Activity [6]: -40%; Activity [7]: 6%; Activity [8]: 62%; GI50 ([9]; read-out: GI50): 1.81 µM; CC50 [9, 34]: 7.01 µM; TGI ([9]; read-out: TGI): 3.56 µM; GI50 ([9]; read-out: pGI50 (converted)): 1.82 µM; CC50 [9, 35]: 7.08 µM; TGI ([9]; read-out: pTGI (converted)): 3.55 µM; Activity [10]: 42%; Activity [11]: 133%; Activity [12]: -80%; Activity [13]: 75%; GI50 ([14]; read-out: GI50): < 0.01 µM; GI50 ([14]; read-out: pGI50 (converted)): 0.01 µM; GI50 ([15]; read-out: GI50): 1.66 µM; CC50 [15, 34]: 5.66 µM; TGI ([15]; read-out: TGI): 3.07 µM; GI50 ([15]; read-out: pGI50 (converted)): 1.66 µM; CC50 [15, 35]: 5.62 µM; TGI ([15]; read-out: pTGI (converted)): 3.09 µM; Activity [16]: 56%; Activity [17]: 1%; Activity [18]: 107%; Activity [19]: 4%; Activity [20]: 93%; Activity [21]: 101%; Activity [22]: 85%; GI50 ([23]; read-out: GI50): 0.339 µM; CC50 [23, 34]: 3.77 µM; TGI ([23]; read-out: TGI): 1.21 µM; GI50 ([23]; read-out: pGI50 (converted)): 0.339 µM; CC50 [23, 35]: 3.8 µM; TGI ([23]; read-out: pTGI (converted)): 1.2 µM; GI50 ([24]; read-out: GI50): 0.0435 µM; CC50 [24, 34]: > 100 µM; TGI ([24]; read-out: TGI): 3.11 µM; GI50 ([24]; read-out: pGI50 (converted)): 0.0437 µM; TGI ([24]; read-out: pTGI (converted)): 3.09 µM; GI50 ([25]; read-out: GI50): < 0.01 µM; CC50 [25, 34]: > 100 µM; TGI ([25]; read-out: TGI): 2.99 µM; GI50 ([25]; read-out: pGI50 (converted)): 0.01 µM; CC50 ([25]; read-out: pLC50 (converted)): > 100 µM; TGI ([25]; read-out: pTGI (converted)): 3.02 µM; GI50 ([26]; read-out: GI50): 0.165 µM; CC50 [26, 34]: 4.3 µM; TGI ([26]; read-out: TGI): 1.85 µM; GI50 ([26]; read-out: pGI50 (converted)): 0.166 µM; CC50 [26, 35]: 4.27 µM; TGI ([26]; read-out: pTGI (converted)): 1.86 µM; Activity [27]: 58%; Activity [28]: 29%; Activity [29]: 108%; Activity [30]: -79%; Activity [31]: -72%; Activity [32]: -61%; Activity [33]: 112%
